In this experiment the test system is KQT1 channel. Kind of experiment: Activity against KQT1 in Xenopus oocytes (two-microelectrode voltage clamp). Also on record: dose or concentration left out as unconfirmed. It counts as cell-based, Caenorhabditis elegans. The following applies: KQT1 expressed in Xenopus oocytes; slowly activated potassium current. As for the experimental part:
To test the ct of IKS channel blockers on the KQT1 channel, electrophysiological studies were carried out on Xenopus oocytes which express the KQT1 channel (specific IKS channel of the nematode Caenorhabditis elegans). An adult female frog (Xenopus laevis) was […] oocytes of all development stages were removed from the ovarian bags. Oocytes of the development stages V and VI were selected; using a nanoliter injector mounted in a micromanipulator, 10 ng of the KQT1-specific m-RNA were injected into each oocyte. After 1-4 days, sufficient KQT1 channels were expressed for it to be possible to measure the corresponding currents. For measuring the slowly activated potassium currents under constant intracellular conditions, the two-microelectrode voltage clamp method was employed. This method is based on operating with 2 intracellular microelectrodes; the first electrode measures the membrane potential against a reference electrode, the second electrode is used to inject current which is necessary to maintain a desired potential. During the measurement, the holding potential was adjusted to -80 mV, which corresponds to the open-circuit membrane potential. The electrophysiological measuring stand comprised a vibration-damped experiment table on which were mounted a purpose-made measuring chamber, 2 micromanipulators, in each case with a preamplifier and a holder for injection microelectrodes, and a stereomicroscope. The complete measuring stand was surrounded by a Faraday cage to minimize electrical disturbances during the measurement. During the measurement, the oocyte was suspended in a solution of ND96 buffer. To activate the voltage-dependent IKS channel, the oocyte membrane was depolarized by a voltage jump from the holding potential (-80 mV) to 0 mV, and this state was maintained for 10 seconds before the holding potential was reestablished. The time profile of the measuring protocol was repeated every 45 s. During the depolarization phase, the slowly activated potassium current was measured.

Take `CCS(=O)(=O)N(C)C1CCCCc2ccc(F)cc21` (stereo not drawn): the Inhibition (as a rule, the relative decrease from the control value, in per cent) is 78%.
As to `CCS(=O)(=O)N(CC(=O)Nc1ccncc1)C1CC(C)(C)Oc2ccc(F)cc21` (stereo not drawn) [2-[ETHANESULFONYL-(6- FLUORO-2,2-DIMETHYL- CHROMAN-4-YL)-AMINO]- N-PYRIDIN-4-YL- ACETAMIDE], the Inhibition amounted to 35%.
The compound `CCS(=O)(=O)N(C)C1CC(C)(C)Oc2cc(OC)c(OC)cc21` (stereo not drawn) [4-N-ETHYLSULFONYL-N- METHYLAMINO-6,7 DIMETHOXY-2,2- DIMETHYLCHROMANE] gave an Inhibition of 30%.
As for `CCS(=O)(=O)N(CCCC(F)(F)F)C1CC(C)(C)Oc2cc(Cl)c(Cl)cc21` (stereo not drawn) [6,7-DICHLORO-4-[N- ETHYLSULFONYL-N- (4,4,4-TRIFLUORO- BUTYL)AMINO]-2,2- DIMETHYLCHROMANE], the Inhibition is recorded as 88%.
For the compound `CCS(=O)(=O)N(C)C1c2cc(C#N)ccc2OC(C)(C)C1O` (stereo not drawn) [6-CYANO-4-TRANS-(N- ETHYLSULFONYL-N- METHYLAMINO)-3 HYDROXY-2,2- DIMETHYLCHROMANE], the Inhibition is reported as 40%.
With `CCS(=O)(=O)N(C)C1CC(C)(C)Oc2cc(Cl)c(F)cc21` (stereo not drawn) [7-CHLORO-4-N- ETHYLSULFONYL-N- METHYLAMINO-6- FLUORO-2,2- DIMETHYLCHROMANE], the Inhibition turned out to be 89%.
Take `CCS(=O)(=O)N(CC(=O)NCCN(C)C)C1CC(C)(C)Oc2ccc(F)cc21` (stereo not drawn) [N-(2-DIMETHYLAMINO- ETHYL)-2-[ETHANE- SULFONYL-(6-FLUORO- 2,2-DIMETHYL-CHROMAN- 4-YL)-AMINO]- ACETAMIDE]: the Inhibition was determined as 22%.
As for `CN(C1=CC(C)(C)Oc2ccc(OCCCC(F)(F)F)cc21)S(C)(=O)=O` [N-[2,2-DIMETHYL-6-(4,4,4- TRIFLUOROBUTOXY)-2H- CHROMEN-4-YL]-N- METHYL- METHANESULFONAMIDE], the Inhibition is 92%.
The compound `CCS(=O)(=O)N(CC(=O)NCCN(C)Cc1ccccc1)C1CC(C)(C)Oc2ccc(F)cc21` (stereo not drawn) [N-[2-(BENZYL-METHYL- AMINO)-ETHYL]-2- [ETHANESULFONYL-(6- FLUORO-2,2-DIMETHYL- CHROMAN-4-YL)-AMINO]- ACETAMIDE] showed an Inhibition of 36%.
